How the values were obtained:
human ASIC3 channels = molecular target: T1, human ASIC3 channels (Homo sapiens, UniProt Q9UHC3); experiment: Whole cell patch clamp of human ASIC3 in transfected F-11 cells; assay type: cell-based; conditions: APETx2 at 1 μM; acidification pH 8.0 to pH 7.0
T1 construct: expressed in transfected cells; host or cells: F-11 cells, vector pASIC3h-IRES-EGFP, JetPEI
T1 sequence (Q9UHC3 1-531): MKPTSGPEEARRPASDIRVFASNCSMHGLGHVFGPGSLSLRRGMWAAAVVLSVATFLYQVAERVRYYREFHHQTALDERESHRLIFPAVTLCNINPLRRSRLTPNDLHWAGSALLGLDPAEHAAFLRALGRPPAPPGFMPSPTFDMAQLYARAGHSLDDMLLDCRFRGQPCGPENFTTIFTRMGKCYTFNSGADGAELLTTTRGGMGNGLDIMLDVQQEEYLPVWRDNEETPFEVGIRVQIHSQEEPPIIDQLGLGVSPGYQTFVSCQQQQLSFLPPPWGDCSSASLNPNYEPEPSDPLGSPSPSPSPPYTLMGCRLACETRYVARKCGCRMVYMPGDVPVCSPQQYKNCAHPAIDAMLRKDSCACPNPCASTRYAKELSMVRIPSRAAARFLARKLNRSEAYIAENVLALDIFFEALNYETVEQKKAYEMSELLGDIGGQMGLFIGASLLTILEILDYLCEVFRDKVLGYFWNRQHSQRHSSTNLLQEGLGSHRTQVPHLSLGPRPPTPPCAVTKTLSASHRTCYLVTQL
Procedure: F-11 cells (refs. 44, 45, 46, 47]) were cultured in 5% of CO2 at a density of 50,000 cells per 35 mm Petri dish. The culture medium contained HAM F-12 medium (Invitrogen) supplemented with 15% foetal bovine serum (ICN Biomedicals), 1×HAT (sodium hypoxanthine, aminopterine and thymidine), 200 μg/ml of allo-4-hydroxy-L-proline (Sigma-Aldrich) and 1% antibiotics. One day after seeding, the cells were transfected with ASIC1a or ASIC3 DNAc (rat clones) using Lipofectamine™ (Invitrogen) according to the manufacturer's instructions using the vectors pCI-ASIC1ar+pIRES2-EGFP (ratio 1:2) or pCI-ASIC3r+pIRES2-EGFP (ratio 1:10) ([ref. 36]), quoted above). For the experiments concerning the human ASIC3 clone (refer to experiments on the effects of the APETx2 toxin on the human form of the ASIC3 channel), the cells were transfected with the DNAc of human ASIC3 using the transfection agent JetPEI (Polypus Transfection) according to the manufacturer's instructions with the aid of the vector pASIC3h-IRES-EGFP. […]
The whole cell configuration of the patch clamp method was used ([ref. 48]) in order to measure the membrane currents (imposed voltage) or the membrane potentials (imposed current). […] The data were sampled at 10 kHz, digitised using a Digidata 1322A A-D/D-A converter (Axon Instruments) and recorded on a hard disk using pClamp software (version 9.2.0.11, Axon Instruments). […]

heteromer ASIC2a+3 = molecular target: T2, heteromer ASIC2a+3 (Rattus norvegicus, UniProt O35240+Q62962); conditions: cited from earlier work
T2 sequence (Q62962 1-512): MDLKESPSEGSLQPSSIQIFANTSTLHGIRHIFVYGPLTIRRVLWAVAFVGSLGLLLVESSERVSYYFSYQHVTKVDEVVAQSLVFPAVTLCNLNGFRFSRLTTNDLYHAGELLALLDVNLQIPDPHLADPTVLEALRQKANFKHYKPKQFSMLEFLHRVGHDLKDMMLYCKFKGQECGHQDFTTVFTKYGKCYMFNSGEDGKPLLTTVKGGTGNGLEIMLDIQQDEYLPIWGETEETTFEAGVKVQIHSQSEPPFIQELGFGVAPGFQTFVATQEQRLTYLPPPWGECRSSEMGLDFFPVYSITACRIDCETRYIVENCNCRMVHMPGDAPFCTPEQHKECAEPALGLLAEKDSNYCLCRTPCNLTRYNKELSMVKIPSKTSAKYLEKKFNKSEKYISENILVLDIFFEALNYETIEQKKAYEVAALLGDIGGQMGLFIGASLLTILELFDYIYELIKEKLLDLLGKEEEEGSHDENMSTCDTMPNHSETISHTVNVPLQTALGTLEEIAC
T2 sequence (O35240 1-533): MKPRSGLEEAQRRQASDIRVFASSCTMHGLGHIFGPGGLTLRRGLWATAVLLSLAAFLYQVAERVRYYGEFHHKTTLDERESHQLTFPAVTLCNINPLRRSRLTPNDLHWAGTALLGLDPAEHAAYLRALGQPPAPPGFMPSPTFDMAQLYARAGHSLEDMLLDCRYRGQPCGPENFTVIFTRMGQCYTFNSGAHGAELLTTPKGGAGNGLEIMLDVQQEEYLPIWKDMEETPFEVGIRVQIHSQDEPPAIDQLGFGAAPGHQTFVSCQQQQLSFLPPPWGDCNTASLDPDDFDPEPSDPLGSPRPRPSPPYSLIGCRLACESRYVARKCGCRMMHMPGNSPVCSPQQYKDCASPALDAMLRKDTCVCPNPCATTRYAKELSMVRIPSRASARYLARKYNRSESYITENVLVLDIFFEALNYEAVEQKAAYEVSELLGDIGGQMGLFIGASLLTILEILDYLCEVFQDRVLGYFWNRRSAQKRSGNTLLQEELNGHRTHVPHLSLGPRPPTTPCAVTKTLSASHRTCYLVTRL

ASIC2a = molecular target: T3, ASIC2a (Rattus norvegicus, UniProt Q62962); conditions: cited from earlier work
T3 sequence (Q62962 1-512): T2 sequence (Q62962 1-512)

peptide of 42 amino acids (SEQ ID NO: 3), three disulphide bonds, from sea anemone Anthopleura elegantissima; blocks ASIC3 [APETx2]
amplitude of the human ASIC3 currents (human ASIC3 channels): significantly reduced
effect on the heteromer ASIC2a+3 (heteromer ASIC2a+3): does not have any effect
effect on ASIC2a isoform (ASIC2a): does not have any effect

— patent US8357659B2, “Method of treating pain or itching with APETx2 peptide toxin” (priority 2008, dated 2013)
